Data on 16 compounds can be found in US6699872B2, “N-substituted urea inhibitors of farnesyl-protein transferase” (Schering Corporation, priority 1997, dated 2004).

The test system of assay [1] is Ras processing in COS cells. In words: Cell-based assay: COS cells, inhibition of Ras processing. As to the method:
2. Cell-Based Assay. COS IC50 values refer to the COS cells activity inhibition of Ras processing, are determined by the methods disclosed in […] or WO 95/10516.

The target of assay [2] is T1, partially purified rat brain farnesyl protein transferase (FPT) (Rattus norvegicus, UniProt Q02293+Q04631).
T1 construct: partially purified rat brain farnesyl protein transferase (FPT); from tissue; host or cells: rat brain
In words: In vitro enzyme assay: inhibition of Ras-CVLS farnesylation by FPT. It counts as biochemical.

Regarding `CCCNC(=O)N1CCC(CC(=O)N2CCN(C3c4ccc(Cl)cc4CCc4cc(Br)cnc43)CC2)CC1` (stereo not shown) [Example 15, 4-[2-[4-(3-Bromo-8-chloro-6,11-dihydro-5H-benzo[5,6]cyclohepta[1,2-b]pyridin-11-yl)-1-piperazinyl]-2-oxoethyl]-N-propyl-1-piperidinecarboxamide], the IC50 in assay [1] was found to be 1500 nM; in assay [2] it was 100 nM.

As for `O=C(CC1CCN(C(=O)N(CCO)CCO)CC1)N1CCC([C@H]2c3ncc(Br)cc3CCc3cc(Cl)cc(Br)c32)CC1` [Example 7], the IC50 in assay [1] worked out at 18 nM; in assay [2], 3.8 nM.

`CNC(=O)N1CCC(CC(=O)N2CCN(C3c4ccc(Cl)cc4CCc4cc(Br)cnc43)CC2)CC1` (stereo not shown) [Example 14, 4-[2-[4-(3-Bromo-8-chloro-6,11-dihydro-5H-benzo[5,6]-cyclohepta[1,2-b]pyridin-11-yl)-1-piperazinyl]-2-oxoethyl]-N-methyl-1-piperidinecarboxamide]: the IC50 in assay [1] was 750 nM; in assay [2], 50 nM.

Turning to `O=C(CC1CCN(C(=O)Nc2ccccc2)CC1)N1CCC([C@H]2c3ncc(Br)cc3CCc3cc(Cl)cc(Br)c32)CC1` [Example 2], the IC50 stood at 33 nM in assay [1] and 5.4 nM in assay [2].

Regarding `CNC(=O)N1CCC(CC(=O)N2CCC([C@H]3c4ncc(Br)cc4CCc4cc(Cl)cc(Br)c43)CC2)CC1` [Example 3], the midpoint of inhibition in assay [2], the IC50, lay at 1.9 nM. This counts as single-digit nanomolar.

“(+)-Methyl alpha(S)-[[[4-[2-[4-[(3,10-dibromo-8-chloro-6,11-dihydro-5H-benzo[5,6]cyclohepta[1,2-b]pyridin-11(R)-yl)-1-piperidinyl]-2-oxoethyl]-1-piperidinyl]carbonyl]amino]-beta-methylbutanoate [Example 5]”: the figures for the half-inhibitory concentration (IC50) in assay [1] and in assay [2] were 150 nM and 5 nM, respectively.

In the case of `COC(=O)[C@H](CO)NC(=O)N1CCC(CC(=O)N2CCC([C@H]3c4ncc(Br)cc4CCc4cc(Cl)cc(Br)c43)CC2)CC1` [Example 9], the results for the IC50 in assay [1] and in assay [2] were 110 nM and 3.3 nM, respectively.

In assay [2], `CCOC(=O)CNC(=O)N1CCC(CC(=O)N2CCC([C@H]3c4ncc(Br)cc4CCc4cc(Cl)cc(Br)c43)CC2)CC1` [Example 4] came in with an IC50 of 2 nM.

For `CCOC(=O)N1CCC(NC(=O)N2CCC(CC(=O)N3CCC([C@H]4c5ncc(Br)cc5CCc5cc(Cl)cc(Br)c54)CC3)CC2)CC1` [Example 6], the results for the 50% inhibitory concentration (IC50) in assay [1] and in assay [2] were 20 nM and 1.7 nM, respectively.

`NC(=O)CNC(=O)N1CCC(CC(=O)N2CCC([C@H]3c4ncc(Br)cc4CCc4cc(Cl)cc(Br)c43)CC2)CC1` [Example 13]: the figures for the IC50 in assay [1] and in assay [2] were 25 nM and 0.9 nM, respectively.

As for `COc1ccccc1NC(=O)N1CCC(CC(=O)N2CCC([C@H]3c4ncc(Br)cc4CCc4cc(Cl)cc(Br)c43)CC2)CC1` [Example 1], the IC50 turned out to be 50 nM in assay [1] and 5.1 nM in assay [2].

On to `CC(C)(C)NC(=O)N1CCC(CC(=O)N2CCN(C3c4ccc(Cl)cc4CCc4cc(Br)cnc43)CC2)CC1` (stereo not shown) [Example 16, 4-[2-[4-(3-Bromo-8-chloro-6,11-dihydro-5H-benzo[5,6]cyclohepta[1,2-b]pyridin-11-yl)-1-piperazinyl]-2-oxoethyl]-N-(1,1-dimethylethyl)-1-piperidinecarboxamide], for which, in assay [2], the IC50 came to 108 nM.

On to `O=C(CC1CCN(C(=O)NCCO)CC1)N1CCC([C@H]2c3ncc(Br)cc3CCc3cc(Cl)cc(Br)c32)CC1` [Example 11], for which the figures for the half-maximal inhibitory concentration (IC50) in assay [1] and in assay [2] were 18 nM and 3.1 nM, respectively.

Regarding `O=C(O)CNC(=O)N1CCC(CC(=O)N2CCC([C@H]3c4ncc(Br)cc4CCc4cc(Cl)cc(Br)c43)CC2)CC1` [Example 12], the IC50 in assay [2] was 0.8 nM. This lies in the sub-nanomolar range.

As to `NC(=O)[C@H](CO)NC(=O)N1CCC(CC(=O)N2CCC([C@H]3c4ncc(Br)cc4CCc4cc(Cl)cc(Br)c43)CC2)CC1` [Example 10], the half-maximal inhibitory concentration (IC50) in assay [1] was 300 nM; in assay [2], 4.6 nM.

Take `COC(=O)[C@H](COC(C)(C)C)NC(=O)N1CCC(CC(=O)N2CCC([C@H]3c4ncc(Br)cc4CCc4cc(Cl)cc(Br)c43)CC2)CC1` [Example 8]: the results for the half-inhibitory concentration (IC50) in assay [1] and in assay [2] were 120 nM and 8.7 nM, respectively.

The term IC50 denotes the point on the concentration scale where inhibition reaches its midpoint. A higher IC50 goes with weaker potency in that assay.
